Test results taken from patent US20160151458A1, “Use Of Unacylated Ghrelin, Fragments And Analogs Thereof As Antioxidant” (ALIZE PHARMA SAS, priority 2013, published 2016).
Ends that are not written are not given here. * marks the point of attachment. Octanoyl = CCCCCCCC(=O)*

Experiments:
[1] = tested on: glucose, insulin and lipid metabolisms; conditions: cited from earlier work; for retention of the activity of UAG full length: U.S. Pat. Nos. 8,222,217 and 8,318,664; for smallest fragment retaining UAG activity: earlier patents
[2] = tested on: unilateral hind limb ischemia in C57BL/6J mice (ischemic gastrocnemius muscle); test: Murine hind-limb ischemia model; type: in vivo
Protocol: Male C57BL/6J mice (Charles River Lab., Wilmington, Mass., USA) were anesthetized and unilateral hind limb ischemia was induced as described^42. The normo-perfused contralateral limb of each mouse was used as an internal control. After hind-limb ischemia, animals (18 mice per group) were treated by intra-peritoneal injection daily from 0 to day 21 with either saline, AG (100 μg/kg) or UAG (100 μg/kg). In selected experiments, mice received intramuscular injections of pre-miR oligonucleotides (5 mice/group). To induce toxic damage, 100 μl of 1% barium chloride (BaCl2, Sigma Aldrich) was injected unilaterally into the hind limb (9 mice). Mice were treated according to European Guidelines and policies as approved by the University of Turin Ethical Committee.
Semiquantitative estimation (by repeated measures analyzed with ANOVA and Newman-Keuls Multiple Comparison test) of foot damage was performed serially using the following classification: 3=dragging of foot (foot necrosis), 2=no dragging but no plantar flexion (foot damage), 1=plantar flexion but no toe flexion (toe damage), and 0=flexing the toes to resist gentle traction on the tail (no damage)^43.
Gastrocnemius muscle sections from ischemic or normo-perfused limbs were stained with hematoxylin and eosin for histological analysis. The proportion of fibers with central nuclei (regenerating fibers) was measured by MetaMorph software (Life Sciences Research Imaging Systems) in the injured area and the cross-sectional areas of the fibers in the injured and non-injured areas. For IF analysis, muscle sections were processed as described previously^44. The number of cells expressing the indicated markers or CD31 positive vessels was evaluated as previously described^34.
(§1) Intracellular ROS production was evaluated using DCF-DA (5-(and-6)-carboxy-2′,7′-dichlorofluorescein diacetate, […] final concentration) (Molecular Probe, Invitrogen) assay as previously described^23. The formation of TBARS was determined in muscles using the OXI-TEK kit (ZeptoMetrix Corp.) and a luminescence spectrometer (Bio-Rad Laboratories, Hercules, Calif.) with excitation set at 530 nm, emission at 550 nm to measure in-vivo oxidative stress levels^33.

SCs from double KO mice = test: In-vitro ischemia of SCs from double KO mice lacking the GHSR1a and ghrelin genes; type: cell-based, C57BL/6J mice lacking the GHSR1a and ghrelin genes
Protocol: (§2) SCs were isolated from gastrocnemius muscles of C57BL/6J wild type mice subjected to ischemia or C57BL/6J mice lacking the GHSR1a and ghrelin genes (10 mice, kind gift of Professor M. Tschöp)^39. To obtain SCs, muscle samples were subjected to enzymatic digestion as described^45. In selected experiments, SCs were recovered from normo-perfused muscles and subjected to in-vitro ischemia in presence of saline, AG (1 μmol/L) or UAG (1 μmol/L). In-vitro ischemia was induced by incubating cells in DMEM+2% FCS at 5% CO2/95% N2 humidified atmosphere, yielding 1% O2 concentrations for 24 h^18. The in-vitro ischemia was also performed in the presence of SB202190 (1 μmol/L).
(§3) SC cell-cycle progression was evaluated by evaluating the percentage of PCNA-positive cells or by FACS analysis as previously described^46. The percentage of cells in each cell cycle phase was determined by ModFit LT software (Verity Software House. Inc, topsham, ME, USA). Celss proliferation was also assayed by evaluating the percentage of PCNA-positive cells by FACS analysis.
(§4) Cells were lysed and protein detection was obtained as previously described^47. Cells were lysed (50 mmol/L Tris HCl [pH 8.3], 1% Triton X-100, 10 mmol/L PMSF, 100 U/ml aprotinin, 10 μmol/L leupeptin) and protein concentrations were obtained as previously described^47. […] Densitometric analysis was used to calculate the differences in the fold induction of protein levels and normalized to tubulin, a actin or p38MAPK content. Values are reported as relative amount
as §1

primary SCs = test: In-vitro ischemia of primary SCs from normo-perfused muscles; type: cell-based, C57BL/6J mice; conditions: SB202190 1 μmol/L added
Protocol: as §2, §3, §4, §1
Total RNA was isolated using TRIzol reagent (Invitrogen) from SCs recovered from muscles of treated animals or from SCs subjected to in-vitro ischemia. miR-221/222 expression was evaluated by qRT-PCR as previously described^48. Loss-of-function experiments were performed in SCs transfected for 48 h with anti-miRNA negative control, anti-miR-221/222 antagonists (Applied Biosystem, Foxter Cyto CA, USA), according to the manufacturer's instructions^48.

[3] = tested on: C2C12 mouse muscular cell line; test: ROS production (DCF-DA) in C2C12 cells under oxidative stress; type: cell-based; conditions: 1 μmol/L; stress by hypoxia (1% O2), AGEs, hyperglycemia (25 mM) or H2O2; FIG. 8
Protocol: Kinetic analysis of ROS production was evaluated by using DCF-DA (5-(and-6)-carboxy-2′,7′-dichlorofluorescein diacetate, 0.5 μmol/L final concentration) (Molecular Probe, Invitrogen) assay. C2C12 cells were cultured with 400 μg/ml Advanced Glycated End-product (AGE) or 25 mM glucose (high glucose HG) for 48 h, H2O2 (100 μM) for 2 h. In parallel experiments C2C12 cells were subjected to hypoxia (DMEM+2% FCS in a 5% CO2-95% N2 humidified atmosphere, yielding to 1% O2 concentrations for 24 h). UAG (1 μmol/L) AZP 531 (1 μmol/L) or AZP-502 (1 μmol/L) was added where indicated.

## Glu-His-Gln-Arg (EHQR; listed as Homo sapiens) [UAG (8-11)]
[1]
  retention of the activity of UAG full length: retain the activity of UAG full length on glucose, insulin and lipid metabolisms
  smallest fragment retaining UAG activity: smallest UAG fragment to retain UAG activities

## AG: 28 amino acid peptide with an n-octanoyl modification on the Ser3 residue; endogenous ligand of GHSR-1a (GSS(Octanoyl)FLSPEHQRVQQRKESKKPPAKLQPR; UniProt Q9UBU3 24-51, looked up) [reference compound]
[2]; 100 μg/kg i.p. daily
  protection against ischemia-induced damage (overall in vivo effect): failure to detect in vivo effects
[2]; 100 μg/kg i.p. daily from day 0, FIG. 1A
  foot damage (functional score): significantly higher
[2]; 100 μg/kg i.p. daily, FIG. 1B
  capillary density, ischemic vs contralateral control muscles of the same animals: significantly lower capillary density than in contralateral control muscles
[2]; FIG. 3A
  concentration of TBARS in ischemic muscles: Significant increases in the concentration of TBARS
SCs from double KO mice; FIG. 5G
  SC cell-cycle progression: only UAG
SCs from double KO mice; FIGS. 5H, 5I
  p-p38/MAPK, Pax-7, MyoD, Myf5 and myogenin expression: only UAG

## His-Gln-Arg (HQR; listed as Homo sapiens) [UAG (9-11)]
[1]
  retention of the activity of UAG full length: retain the activity of UAG full length on glucose, insulin and lipid metabolisms

## Glu-His-Gln-Arg-Val (EHQRV; listed as Homo sapiens) [UAG (8-12)]
[1]
  retention of the activity of UAG full length: retain the activity of UAG full length on glucose, insulin and lipid metabolisms

## EHQRVQ [UAG (8-13)]
[1]
  retention of the activity of UAG full length: retain the activity of UAG full length on glucose, insulin and lipid metabolisms

## His-Gln-Arg-Val (HQRV; listed as Homo sapiens) [UAG (9-12)]
[1]
  retention of the activity of UAG full length: retain the activity of UAG full length on glucose, insulin and lipid metabolisms
  smallest fragment retaining UAG activity: smallest UAG fragment to retain the biological activity of UAG

## Oc1ccc(-c2nc(-c3ccncc3)c(-c3ccc(F)cc3)[nH]2)cc1 [SB202190, reference compound]
Primary SCs; FIG. 5E
  cell-cycle entry of SCs exposed to UAG: blocked cell-cycle entry
Primary SCs; FIG. 5F
  MyoD and myogenin expression in SCs exposed to UAG: prevented MyoD and myogenin expression

## SPEHQRVQ [UAG (6-13)]
[1]
  retention of the activity of UAG full length: retain the activity of UAG full length on glucose, insulin and lipid metabolisms
[3]
  protection against oxidative stress (ROS production): have a protective effect on C2C12 cells against oxidative stress

## Ser-Pro-Glu-His-Gln-Arg-Val-Gln (cycl) (SPEHQRVQ; also: cyclic, closure not given here; listed as Homo sapiens) [UAG(6-13)cyclic]
[3]
  protection against oxidative stress (ROS production): have a protective effect on C2C12 cells against oxidative stress
